Biological target: T1, PI3Kα H1047R (T47D cells) (Homo sapiens, UniProt P42336, H1047R)
T1 construct: endogenous in cells; host or cells: T47D cells
Experiment: PI3Kα cellular assay: pAKT HTRF in T47D cells after EGF stimulation
Assay type: cell-based
Conditions: for IC50: T47D cells (PI3Kα H1047R), pAKT S473 HTRF
In short: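 pAKT read by HTRF in lysates of EGF-stimulated (20 ng/mL, 10 min) T47D H1047R cells. Before stimulation, serum-starved cells (16 h) received compound for 1 h at 37 °C, dosed from 10,000 nM down to 0.5 nM in 3-fold steps.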

[1] = selectivity T47D (H1047R) over SKBR3 (WT), pAKT HTRF
[2] = 1 hr compound, 20 ng/ml EGF 10 min
[3] = selectivity of T47D (H1047R) over SKBR3 (WT) pAKT IC50

T1 sequence (P42336 whole entry H1047R): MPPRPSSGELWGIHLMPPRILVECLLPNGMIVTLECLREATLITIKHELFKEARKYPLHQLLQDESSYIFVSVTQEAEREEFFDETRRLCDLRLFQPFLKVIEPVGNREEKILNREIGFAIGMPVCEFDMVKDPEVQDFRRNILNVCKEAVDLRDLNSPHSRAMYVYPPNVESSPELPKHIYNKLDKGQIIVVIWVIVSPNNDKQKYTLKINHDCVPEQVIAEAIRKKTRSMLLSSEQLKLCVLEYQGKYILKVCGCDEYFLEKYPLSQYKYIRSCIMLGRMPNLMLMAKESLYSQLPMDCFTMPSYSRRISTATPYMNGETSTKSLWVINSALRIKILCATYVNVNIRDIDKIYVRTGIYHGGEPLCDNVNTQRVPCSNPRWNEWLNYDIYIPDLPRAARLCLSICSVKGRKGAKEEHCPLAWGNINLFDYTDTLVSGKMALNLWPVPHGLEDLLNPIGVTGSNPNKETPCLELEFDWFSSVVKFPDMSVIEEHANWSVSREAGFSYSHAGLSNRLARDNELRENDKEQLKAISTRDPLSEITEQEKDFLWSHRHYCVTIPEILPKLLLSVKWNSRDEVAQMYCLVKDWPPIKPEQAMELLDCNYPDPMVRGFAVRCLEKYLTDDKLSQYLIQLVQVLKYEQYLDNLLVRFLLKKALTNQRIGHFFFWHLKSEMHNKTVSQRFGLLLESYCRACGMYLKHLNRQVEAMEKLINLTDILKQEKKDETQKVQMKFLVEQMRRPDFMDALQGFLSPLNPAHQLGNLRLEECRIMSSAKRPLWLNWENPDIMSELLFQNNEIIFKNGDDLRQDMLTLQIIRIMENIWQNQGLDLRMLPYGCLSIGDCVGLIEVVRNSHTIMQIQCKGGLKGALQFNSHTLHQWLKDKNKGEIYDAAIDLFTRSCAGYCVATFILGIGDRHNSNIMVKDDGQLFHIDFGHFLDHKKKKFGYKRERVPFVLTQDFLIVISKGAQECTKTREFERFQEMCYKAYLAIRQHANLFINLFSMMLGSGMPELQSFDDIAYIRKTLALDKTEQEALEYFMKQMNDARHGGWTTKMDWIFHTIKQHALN
T1 sequence (P27986 whole entry partner): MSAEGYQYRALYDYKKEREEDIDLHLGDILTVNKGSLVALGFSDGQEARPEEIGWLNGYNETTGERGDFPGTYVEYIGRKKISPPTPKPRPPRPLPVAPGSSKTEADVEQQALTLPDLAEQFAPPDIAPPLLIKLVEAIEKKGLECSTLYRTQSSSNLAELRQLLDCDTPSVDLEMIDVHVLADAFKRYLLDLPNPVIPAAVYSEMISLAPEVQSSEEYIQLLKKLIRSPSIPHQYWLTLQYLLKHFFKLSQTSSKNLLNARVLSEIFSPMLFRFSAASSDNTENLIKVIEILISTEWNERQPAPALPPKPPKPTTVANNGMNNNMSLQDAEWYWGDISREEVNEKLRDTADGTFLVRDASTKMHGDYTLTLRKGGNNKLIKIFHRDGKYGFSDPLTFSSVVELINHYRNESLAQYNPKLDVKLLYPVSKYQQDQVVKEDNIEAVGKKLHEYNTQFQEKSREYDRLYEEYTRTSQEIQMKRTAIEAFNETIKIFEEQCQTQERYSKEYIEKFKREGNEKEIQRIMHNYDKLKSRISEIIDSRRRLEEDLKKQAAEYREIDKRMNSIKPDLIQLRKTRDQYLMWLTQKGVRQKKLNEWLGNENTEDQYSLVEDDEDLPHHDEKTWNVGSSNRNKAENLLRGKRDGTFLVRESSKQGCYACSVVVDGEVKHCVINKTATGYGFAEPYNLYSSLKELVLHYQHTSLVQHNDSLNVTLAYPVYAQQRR

SMILES	T47D pAKT S473 HTRF IC50 (H1047R): T47D (H1047R) selectivity over SKBR3 (WT) [1]	IC50 [2] [nM]	IC50 (EGF stimulation) [nM]	T47D pAKT S473 HTRF IC50 (H1047R): T47D (H1047R) selectivity over SKBR3 (WT) [3]
Cc1cc([C@H](C)Nc2ccccc2C(=O)O)c2nc(-c3ccc(C4CCC(C)CC4)cc3)cc(=O)n2c1 (some centres unmarked) [Compound 1341]	B (B denotes 20-fold≥value>5-fold)			
Cc1cc([C@H](C)Nc2ccccc2C(=O)O)c2nc(Nc3ccc4[nH]c(=O)oc4c3)cc(=O)n2c1 [Compound 547]	C (C denotes ≤5-fold)	> 2000		
Cc1cc(C(C)Nc2ccccc2C(=O)O)c2nc(N3CCC4(CC3)COC4)cc(=O)n2c1 (centres unmarked) [Compound 471]	B (B denotes 20-fold≥value>5-fold)	500 to 2000		
Cc1cc([C@@H](C)Nc2ccccc2C(N)=O)c2nc(-c3cnc(C)c(Cl)c3)c(C)c(=O)n2c1 [Compound 1135]	A (A denotes >20-fold)		100 to 500	
Cc1cc(C(C)Nc2ccccc2C(=O)O)c2nc(-c3ccc4c(c3)c(C3CC3)nn4C)cc(=O)n2c1 (centres unmarked) [Compound 736]			100 to 500	A (A denotes >20-fold)
Cc1cc([C@H](C)Nc2ccccc2C(N)=O)c2nc(-c3ccc(C4CC4)nc3)c(C)c(=O)n2c1 [Compound 1154]	C (C denotes ≤5-fold)		> 2000	
CC(=O)N1CCC(c2cc(=O)n3cc(C)cc([C@H](C)Nc4ccccc4C(=O)O)c3n2)CC1 [Compound 523]	B (B denotes 20-fold≥value>5-fold)	500 to 2000		
Cc1cc([C@H](C)Nc2ccccc2S(N)(=O)=O)c2nc(-c3cnc4c(c3)c(C)nn4C)c(C)c(=O)n2c1 [Compound 988]			> 2000	C (C denotes ≤5-fold)
Cc1cc([C@@H](C)Nc2ccccc2C(=O)O)c2nc(N3CC[Si](C)(C)CC3)cc(=O)n2c1 (single isomer, unassigned) [Compound 431]	A (A denotes >20-fold)	< 100		
Cc1cc(C(C)Nc2ccccc2S(N)(=O)=O)c2nc(-c3ccnc(C4CC4)c3)c(C)c(=O)n2c1 (centres unmarked) [Compound 1096]	A (A denotes >20-fold)		< 100	
Cc1cc([C@@H](C)Nc2ccccc2S(N)(=O)=O)c2nc(C3CCN(CC(C)C)CC3)c(C)c(=O)n2c1 [Compound 1287]	C (C denotes ≤5-fold)			
Cc1cc([C@@H](C)Nc2ccccc2C(=O)O)c2nc(-c3ccc(F)c(C)c3)c(C)c(=O)n2c1 [Compound 1022]			< 100	A (A denotes >20-fold)
Cc1cc(C(C)Nc2cnccc2C(=O)O)c2nc(N3CCOCC3)cc(=O)n2c1 (centres unmarked) [Compound 194]	C (C denotes ≤5-fold)	> 2000		
Cc1cc(C(C)Nc2ccccc2)c2nc(N3Cc4ccccc4C3)cc(=O)n2c1 (centres unmarked) [Compound 647]				C (C denotes ≤5-fold)
CCC(Nc1ccccc1S(N)(=O)=O)c1cc(C)cn2c(=O)cc(N3CCOCC3)nc12 (centres unmarked) [Compound 1159]	C (C denotes ≤5-fold)		> 2000	
Cc1cc(C(C)Nc2ccccc2C(=O)O)c2nc(-c3cc(C)nc(Cl)c3)c(C)c(=O)n2c1 (centres unmarked) [Compound 1099]	A (A denotes >20-fold)		< 100	
Cc1cc([C@@H](C)NCc2cccnn2)c2nc(N3Cc4ccccc4C3)cc(=O)n2c1 [Compound 876]			> 2000	C (C denotes ≤5-fold)
Cc1cc([C@@H](C)Nc2ccccc2C(=O)O)c2nc(Nc3ccc4[nH]c(=O)oc4c3)cc(=O)n2c1 [Compound 546]	C (C denotes ≤5-fold)	> 2000		
Cc1cc(C(C)Nc2ccccc2C(=O)O)c2nc(-c3ccc(C(=O)NO)cc3)cc(=O)n2c1 (centres unmarked) [Compound 487]	C (C denotes ≤5-fold)	> 2000		
Cc1cc([C@H](C)Nc2ccccc2C(=O)O)c2nc(-c3ccc4c(c3)c(C(F)(F)F)nn4C)cc(=O)n2c1 [Compound 738]			> 2000	C (C denotes ≤5-fold)
Cc1cc(C(C)Nc2cccc(F)c2C(=O)O)c2nc(N3CCOCC3)cc(=O)n2c1 (centres unmarked) [Compound 287]	C (C denotes ≤5-fold)	> 2000		
Cc1cc([C@H](C)Nc2ccccc2CC(=O)O)c2nc(N3CCOCC3)cc(=O)n2c1 [Compound 158]	C (C denotes ≤5-fold)	> 2000		

— patent publication US20260132129A1 (Genesis Therapeutics, Inc., priority 2022, published 2026)
